Reference: PMC6576746, “Rational discovery of dual-indication multi-target PDE/Kinase inhibitor for precision anti-cancer therapy using structural systems pharmacology” (PLoS Computational Biology, 2019)

Legend:
Assay in all cases: biochemical
Set-up in all cases: DiscoverX KinomeScan competition binding assay across human kinases; per cent of control at 10 and 100 uM
[1] = molecular target: T1, JAK1(JH2domain-pseudokinase) (Homo sapiens, UniProt P23458); conditions: competition binding, % of control
T1 construct: JH2domain-pseudokinase
In short: (§1)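 Binding is expressed as %control, normalised between positive and negative control signals. The compound (levosimendan) was tested at 10 μM and 100 μM in the DiscoverX KinomeScan competition binding format against human kinases.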

[2] = molecular target: CAMK1G (Homo sapiens, UniProt Q96NX5); conditions: competition binding, % of control; read-out: Percent Control (100 uM Levosimendan)
In short: as §1

[3] = molecular target: PAK2 (Homo sapiens, UniProt Q13177); conditions: competition binding, % of control; read-out: Percent Control (100 uM Levosimendan)
In short: as §1

[4] = molecular target: T2, AMPK-alpha2 (Homo sapiens, UniProt P54646); conditions: competition binding, % of control; read-out: Percent Control (100 uM Levosimendan)
T2 construct: gene PRKAA2
In short: as §1

[5] = molecular target: T3, DRAK2 (Homo sapiens, UniProt O94768); conditions: competition binding, % of control
T3 construct: gene STK17B
In short: as §1

[6] = molecular target: ACVR1 (Homo sapiens, UniProt Q04771); conditions: competition binding, % of control
In short: as §1

[7] = molecular target: ERBB3 (Homo sapiens, UniProt P21860); conditions: competition binding, % of control; read-out: Percent Control (100 uM Levosimendan)
In short: as §1

[8] = molecular target: CLK2 (Homo sapiens, UniProt P49760); conditions: competition binding, % of control; read-out: Percent Control (100 uM Levosimendan)
In short: as §1

[9] = molecular target: T4, TIE2 (Homo sapiens, UniProt Q02763); conditions: competition binding, % of control; read-out: Percent Control (100 uM Levosimendan)
T4 construct: gene TEK
In short: as §1

[10] = molecular target: PAK6 (Homo sapiens, UniProt Q9NQU5); conditions: competition binding, % of control; read-out: Percent Control (100 uM Levosimendan)
In short: as §1

[11] = molecular target: T5, ABL1(T315I)-nonphosphorylated (Homo sapiens, UniProt P00519, T315I); conditions: competition binding, % of control; read-out: Percent Control (100 uM Levosimendan)
T5 construct: nonphosphorylated
In short: as §1

[12] = molecular target: PRKD1 (Homo sapiens, UniProt Q15139); conditions: competition binding, % of control; read-out: Percent Control (100 uM Levosimendan)
In short: as §1

[13] = molecular target: ULK3 (Homo sapiens, UniProt Q6PHR2); conditions: competition binding, % of control; read-out: Percent Control (100 uM Levosimendan)
In short: as §1

[14] = molecular target: DAPK2 (Homo sapiens, UniProt Q9UIK4); conditions: competition binding, % of control; read-out: Percent Control (100 uM Levosimendan)
In short: as §1

[15] = molecular target: T6, PFTAIRE2 (Homo sapiens, UniProt Q96Q40); conditions: competition binding, % of control; read-out: Percent Control (100 uM Levosimendan)
T6 construct: gene CDK15
In short: as §1

[16] = molecular target: RIOK2 (Homo sapiens, UniProt Q9BVS4); conditions: competition binding, % of control
In short: as §1

[17] = molecular target: T7, ERK4 (Homo sapiens, UniProt P31152); conditions: competition binding, % of control; read-out: Percent Control (100 uM Levosimendan)
T7 construct: gene MAPK4
In short: as §1

[18] = molecular target: GRK2 (Homo sapiens, UniProt P25098); conditions: competition binding, % of control; read-out: Percent Control (100 uM Levosimendan)
In short: as §1

[19] = molecular target: ULK1 (Homo sapiens, UniProt O75385); conditions: competition binding, % of control; read-out: Percent Control (100 uM Levosimendan)
In short: as §1

[20] = read-out: Percent Control (10 uM Levosimendan)
[21] = read-out: Percent Control (100 uM Levosimendan)

RIOK2, sequence (Q9BVS4 whole entry): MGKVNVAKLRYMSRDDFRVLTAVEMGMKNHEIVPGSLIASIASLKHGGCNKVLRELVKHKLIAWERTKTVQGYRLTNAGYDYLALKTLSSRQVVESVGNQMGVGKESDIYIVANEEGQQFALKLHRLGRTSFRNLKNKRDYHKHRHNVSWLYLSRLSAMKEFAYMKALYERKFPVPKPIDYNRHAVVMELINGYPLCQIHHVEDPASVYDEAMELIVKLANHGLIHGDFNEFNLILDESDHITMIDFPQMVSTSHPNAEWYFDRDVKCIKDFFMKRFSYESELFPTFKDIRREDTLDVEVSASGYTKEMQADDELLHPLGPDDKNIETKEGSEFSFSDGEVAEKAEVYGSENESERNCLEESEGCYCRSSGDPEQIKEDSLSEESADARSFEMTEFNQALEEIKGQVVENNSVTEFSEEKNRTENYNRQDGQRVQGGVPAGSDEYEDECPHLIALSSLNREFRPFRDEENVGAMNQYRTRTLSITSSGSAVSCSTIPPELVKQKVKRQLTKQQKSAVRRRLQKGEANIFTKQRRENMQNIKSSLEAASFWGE
T3 sequence (O94768 whole entry): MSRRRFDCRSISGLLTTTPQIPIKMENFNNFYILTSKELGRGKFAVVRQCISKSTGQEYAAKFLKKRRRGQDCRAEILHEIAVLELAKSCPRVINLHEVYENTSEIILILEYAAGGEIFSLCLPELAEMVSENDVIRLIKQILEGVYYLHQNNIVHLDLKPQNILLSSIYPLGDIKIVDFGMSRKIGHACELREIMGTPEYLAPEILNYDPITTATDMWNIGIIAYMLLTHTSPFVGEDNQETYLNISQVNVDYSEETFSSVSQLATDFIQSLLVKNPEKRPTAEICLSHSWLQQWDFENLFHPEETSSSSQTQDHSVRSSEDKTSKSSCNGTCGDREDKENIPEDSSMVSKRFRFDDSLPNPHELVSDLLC
T1 sequence (P23458 whole entry): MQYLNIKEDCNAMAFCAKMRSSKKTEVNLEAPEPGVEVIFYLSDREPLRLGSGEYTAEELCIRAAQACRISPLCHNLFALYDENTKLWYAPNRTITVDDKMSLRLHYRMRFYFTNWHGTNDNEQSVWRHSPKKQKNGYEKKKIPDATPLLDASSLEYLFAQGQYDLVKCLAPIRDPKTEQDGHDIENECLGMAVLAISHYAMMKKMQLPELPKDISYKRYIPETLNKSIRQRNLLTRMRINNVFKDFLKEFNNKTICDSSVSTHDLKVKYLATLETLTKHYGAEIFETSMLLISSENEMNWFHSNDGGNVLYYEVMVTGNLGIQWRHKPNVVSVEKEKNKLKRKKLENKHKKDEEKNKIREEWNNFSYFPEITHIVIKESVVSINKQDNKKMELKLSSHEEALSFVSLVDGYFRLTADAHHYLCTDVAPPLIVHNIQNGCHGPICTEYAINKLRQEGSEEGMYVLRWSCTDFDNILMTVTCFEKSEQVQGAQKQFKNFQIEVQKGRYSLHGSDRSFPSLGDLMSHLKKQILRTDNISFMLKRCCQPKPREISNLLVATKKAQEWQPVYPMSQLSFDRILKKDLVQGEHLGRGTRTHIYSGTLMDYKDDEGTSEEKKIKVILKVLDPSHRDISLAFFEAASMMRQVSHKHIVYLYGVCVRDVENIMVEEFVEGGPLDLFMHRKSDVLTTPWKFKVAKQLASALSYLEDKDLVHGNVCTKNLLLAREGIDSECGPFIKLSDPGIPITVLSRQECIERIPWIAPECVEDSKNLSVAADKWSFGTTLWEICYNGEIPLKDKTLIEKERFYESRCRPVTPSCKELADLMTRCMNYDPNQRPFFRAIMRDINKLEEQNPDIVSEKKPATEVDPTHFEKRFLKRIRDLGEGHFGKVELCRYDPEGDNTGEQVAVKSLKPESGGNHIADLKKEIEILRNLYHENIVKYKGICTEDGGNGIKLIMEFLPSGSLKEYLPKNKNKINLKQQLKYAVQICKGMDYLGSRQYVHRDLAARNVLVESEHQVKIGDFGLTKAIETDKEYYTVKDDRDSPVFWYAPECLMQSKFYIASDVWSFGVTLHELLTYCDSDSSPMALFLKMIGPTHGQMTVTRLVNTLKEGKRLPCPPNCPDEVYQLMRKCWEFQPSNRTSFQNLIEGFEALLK
ACVR1, sequence (Q04771 whole entry): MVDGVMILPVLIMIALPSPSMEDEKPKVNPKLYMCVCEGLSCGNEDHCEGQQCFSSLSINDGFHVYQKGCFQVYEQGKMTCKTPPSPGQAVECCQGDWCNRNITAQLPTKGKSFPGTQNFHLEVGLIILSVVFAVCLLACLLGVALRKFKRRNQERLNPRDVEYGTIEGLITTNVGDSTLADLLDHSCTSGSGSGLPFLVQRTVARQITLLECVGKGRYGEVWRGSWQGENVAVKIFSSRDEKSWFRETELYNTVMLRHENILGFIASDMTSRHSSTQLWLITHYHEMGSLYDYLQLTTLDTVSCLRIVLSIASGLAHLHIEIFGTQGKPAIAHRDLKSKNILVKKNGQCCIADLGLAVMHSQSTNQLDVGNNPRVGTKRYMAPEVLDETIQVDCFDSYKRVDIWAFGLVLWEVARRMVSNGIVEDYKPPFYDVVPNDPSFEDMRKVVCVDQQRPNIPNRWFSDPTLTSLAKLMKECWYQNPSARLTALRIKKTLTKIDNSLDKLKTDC
PRKD1, sequence (Q15139 whole entry): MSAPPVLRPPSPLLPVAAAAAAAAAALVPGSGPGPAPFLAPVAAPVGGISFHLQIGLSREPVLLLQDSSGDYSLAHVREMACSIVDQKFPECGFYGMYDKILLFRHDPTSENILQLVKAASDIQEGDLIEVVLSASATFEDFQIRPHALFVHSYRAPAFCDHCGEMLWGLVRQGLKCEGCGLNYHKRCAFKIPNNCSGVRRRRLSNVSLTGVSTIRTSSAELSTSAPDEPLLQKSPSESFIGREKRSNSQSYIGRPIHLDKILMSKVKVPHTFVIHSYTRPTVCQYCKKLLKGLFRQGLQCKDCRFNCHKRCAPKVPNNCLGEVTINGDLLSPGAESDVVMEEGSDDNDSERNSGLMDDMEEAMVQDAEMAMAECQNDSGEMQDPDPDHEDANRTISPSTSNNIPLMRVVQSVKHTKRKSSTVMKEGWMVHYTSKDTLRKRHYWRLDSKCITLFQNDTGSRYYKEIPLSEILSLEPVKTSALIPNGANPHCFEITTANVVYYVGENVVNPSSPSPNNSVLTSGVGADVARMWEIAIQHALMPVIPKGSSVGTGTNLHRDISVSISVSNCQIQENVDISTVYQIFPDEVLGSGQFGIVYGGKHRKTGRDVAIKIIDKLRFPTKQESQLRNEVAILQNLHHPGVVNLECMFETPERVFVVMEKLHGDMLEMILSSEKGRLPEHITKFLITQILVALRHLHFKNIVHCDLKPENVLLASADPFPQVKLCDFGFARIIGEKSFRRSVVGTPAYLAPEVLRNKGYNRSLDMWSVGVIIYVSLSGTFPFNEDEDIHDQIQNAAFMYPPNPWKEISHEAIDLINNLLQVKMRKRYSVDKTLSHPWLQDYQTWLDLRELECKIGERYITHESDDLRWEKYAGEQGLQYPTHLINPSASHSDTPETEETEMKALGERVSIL
DAPK2, sequence (Q9UIK4 whole entry): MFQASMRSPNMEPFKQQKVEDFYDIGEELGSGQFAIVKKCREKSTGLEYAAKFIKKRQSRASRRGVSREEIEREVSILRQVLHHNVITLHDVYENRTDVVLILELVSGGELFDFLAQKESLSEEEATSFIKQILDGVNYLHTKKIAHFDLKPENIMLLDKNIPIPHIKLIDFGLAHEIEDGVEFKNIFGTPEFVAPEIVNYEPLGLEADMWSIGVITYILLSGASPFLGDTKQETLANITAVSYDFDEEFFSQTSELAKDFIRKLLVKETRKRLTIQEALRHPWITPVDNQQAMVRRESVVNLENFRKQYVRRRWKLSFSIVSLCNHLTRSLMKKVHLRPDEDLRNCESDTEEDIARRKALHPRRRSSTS
T4 sequence (Q02763 whole entry): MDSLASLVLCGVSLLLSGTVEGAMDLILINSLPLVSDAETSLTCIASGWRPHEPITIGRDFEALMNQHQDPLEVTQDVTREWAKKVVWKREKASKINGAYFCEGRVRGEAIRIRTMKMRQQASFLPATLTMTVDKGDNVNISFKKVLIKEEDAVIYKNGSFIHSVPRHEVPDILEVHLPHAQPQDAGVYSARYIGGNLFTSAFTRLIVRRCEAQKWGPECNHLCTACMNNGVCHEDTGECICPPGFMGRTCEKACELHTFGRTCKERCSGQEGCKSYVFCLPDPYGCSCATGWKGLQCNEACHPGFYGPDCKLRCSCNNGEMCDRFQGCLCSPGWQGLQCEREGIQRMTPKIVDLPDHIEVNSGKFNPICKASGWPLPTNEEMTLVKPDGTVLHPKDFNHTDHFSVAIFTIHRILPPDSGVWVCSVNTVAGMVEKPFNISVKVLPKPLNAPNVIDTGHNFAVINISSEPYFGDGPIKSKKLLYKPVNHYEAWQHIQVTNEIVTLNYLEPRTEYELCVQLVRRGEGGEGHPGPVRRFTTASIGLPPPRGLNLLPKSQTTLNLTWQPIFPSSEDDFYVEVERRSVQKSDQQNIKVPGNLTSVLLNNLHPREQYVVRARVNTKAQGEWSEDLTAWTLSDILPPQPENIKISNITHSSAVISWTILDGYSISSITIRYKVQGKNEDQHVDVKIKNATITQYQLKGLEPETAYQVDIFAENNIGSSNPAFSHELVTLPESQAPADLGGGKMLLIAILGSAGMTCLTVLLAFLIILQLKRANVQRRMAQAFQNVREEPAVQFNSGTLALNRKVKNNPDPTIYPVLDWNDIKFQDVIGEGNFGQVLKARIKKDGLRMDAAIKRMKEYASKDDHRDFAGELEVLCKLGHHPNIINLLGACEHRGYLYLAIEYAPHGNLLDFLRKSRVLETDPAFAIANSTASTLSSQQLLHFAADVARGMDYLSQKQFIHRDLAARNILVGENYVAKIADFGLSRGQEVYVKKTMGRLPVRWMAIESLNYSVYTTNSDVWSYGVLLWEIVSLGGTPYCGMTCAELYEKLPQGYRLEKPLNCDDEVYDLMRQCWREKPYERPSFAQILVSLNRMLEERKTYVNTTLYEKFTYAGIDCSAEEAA

remaining binding at 10 µM [1, 20]: 30%
remaining binding at 100 µM [1, 21]: 7.2%
remaining binding at 100 µM [2]: 62%
remaining binding at 100 µM [3]: 78%
remaining binding at 100 µM [4]: 83%
remaining binding at 10 µM [5, 20]: 99%
remaining binding at 100 µM [5, 21]: 20%
remaining binding at 10 µM [6, 20]: 55%
remaining binding at 100 µM [6, 21]: 6.5%
remaining binding at 100 µM [7]: 75%
remaining binding at 100 µM [8]: 69%
remaining binding at 100 µM [9]: 78%
remaining binding at 100 µM [10]: 70%
remaining binding at 100 µM [11]: 100%
remaining binding at 100 µM [12]: 96%
remaining binding at 100 µM [13]: 77%
remaining binding at 100 µM [14]: 73%
remaining binding at 100 µM [15]: 85%
remaining binding at 10 µM [16, 20]: 67%
remaining binding at 100 µM [16, 21]: 27%
remaining binding at 100 µM [17]: 100%
remaining binding at 100 µM [18]: 100%
remaining binding at 100 µM [19]: 95%
Structure (SMILES): C[C@@H]1CC(=O)NN=C1c1ccc(NN=C(C#N)C#N)cc1 [levosimendan]
